Bridge positions count the residues as written; N and C are the ends. Square brackets hold non-standard residues; d marks the D form. Peptide text beside a SMILES is read from it. * marks the point of attachment. ξ: configuration not given here. Phe(4-COOH) = N[C@@H](Cc1ccc(C(=O)O)cc1)C(=O)O; Bip = N[C@@H](Cc1ccc(-c2ccccc2)cc1)C(=O)O; Phe(3-Me) = Cc1cccc(C[C@H](N)C(=O)O)c1; hArg = N=C(N)NCCCC[C@H](N)C(=O)O; hCit = NC(=O)NCCCC[C@H](N)C(=O)O; 4Pal = N[C@@H](Cc1ccncc1)C(=O)O; 3Thi = N[C@@H](Cc1ccsc1)C(=O)O; Cha = N[C@@H](CC1CCCCC1)C(=O)O; aThr = C[C@H](O)[C@H](N)C(=O)O; Thr(3ξ) = CC(O)[C@H](N)C(=O)O; 12Ado = NCCCCCCCCCCCC(=O)O; Carboxymethyl = O=C(O)C*; Orn = NCCC[C@H](N)C(=O)O; Aun = NCCCCCCCCCCC(=O)O; Dab = NCC[C@H](N)C(=O)O; Dap = NC[C@H](N)C(=O)O; AEEA = NCCOCCOCC(=O)O

T1 sequence (Q15116 25-288): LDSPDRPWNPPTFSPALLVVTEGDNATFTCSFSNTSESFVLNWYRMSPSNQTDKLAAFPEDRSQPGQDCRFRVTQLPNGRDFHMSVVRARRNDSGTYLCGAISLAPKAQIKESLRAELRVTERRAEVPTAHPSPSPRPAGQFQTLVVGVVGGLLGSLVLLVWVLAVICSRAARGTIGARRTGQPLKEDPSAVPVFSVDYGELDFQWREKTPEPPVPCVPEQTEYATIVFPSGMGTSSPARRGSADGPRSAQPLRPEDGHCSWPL

The assay addresses T1, PD-1/PD-L1 interaction (PE-labeled human PD-L1-Ig binding to Jurkat cell line over-expressing human PD-1) (Homo sapiens, UniProt Q15116).
T1 construct: expressed in transfected cells; host or cells: Jurkat
The assay can be described thus: Jurkat-PD-1 Cell Binding High-Content Screening Assay (CBA). The conditions noted are these: Jurkat cell line over-expressing human PD-1; PE-labeled PD-L1-Ig 20 nM final; read-out: Jurkat hPD1-PDL1 IC50. It is filed as cell-based. In outline:
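Jurkat cells stably over-expressing human PD-1 were seeded in DMEM with 10% fetal calf serum and pre-incubated with compound for 2 h at 37° C. PE-labeled human PD-L1-Ig was then added at 20 nM final for 1 hour, after which cells were fixed with paraformaldehyde, Hoechst-stained and imaged by high-content microscopy.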
As a reminder, the IC50 is the point on the concentration scale where inhibition reaches its midpoint. For `Cc1cccc(C[C@@H]2NC(=O)[C@H](CC(=O)O)NC(=O)[C@H](Cc3ccc(OCC(=O)O)cc3)NC(=O)[C@H](CCCCNC(=N)N)NC(=O)CSC[C@@H](C(=O)NCCOCCOCC(=O)N[C@@H](CCCCN)C(=O)NCCCCCCCCCCC(=O)O)NC(=O)[C@H]([C@H](C)O)NC(=O)[C@H](C(C)C)NC(=O)[C@H](CC3CCCCC3)NC(=O)[C@H](CC(N)=O)NC(=O)[C@@H](CC(C)C)NC(=O)[C@H](CCCN)NC(=O)[C@H](C(C)C)NC(=O)[C@H](Cc3ccc(-c4ccccc4)cc3)NC(=O)[C@H](C(C)C)NC2=O)c1` [Compound 3162] ({CH2CO}-[hArg]Y(Carboxymethyl)D[Phe(3-Me)]V[Bip]V[Orn][dL]N[Cha]V[aThr]C[AEEA]K[Aun]-OH; thioether N-14), the IC50 came to 0.0263 µM.
With `CC(C)C[C@H]1NC(=O)[C@H](CCCN)NC(=O)[C@H](C(C)C)NC(=O)[C@H](Cc2ccc(-c3ccccc3)cc2)NC(=O)[C@H](C(C)C)NC(=O)[C@H](Cc2c[nH]c3ccccc23)NC(=O)[C@H](CC(=O)O)NC(=O)[C@H](Cc2ccc(OCC(=O)O)cc2)NC(=O)[C@H](CCCCNC(=N)N)NC(=O)CSC[C@@H](C(=O)NCCOCCOCC(=O)N[C@@H](CCCCN)C(=O)NCCCCCCCCCCC(=O)O)NC(=O)[C@H]([C@H](C)O)NC(=O)[C@H](C(C)C)NC(=O)[C@H](CC2CCCCC2)NC(=O)[C@H](CC(N)=O)NC1=O` [Compound 3163] ({CH2CO}-[hArg]Y(Carboxymethyl)DWV[Bip]V[Orn][dL]N[Cha]V[aThr]C[AEEA]K[Aun]-OH; thioether N-14) the figure was 0.0223 µM.
Turning to `CC(C)C[C@H]1NC(=O)[C@H](CCCN)NC(=O)[C@H](C(C)C)NC(=O)[C@H](Cc2ccc(-c3ccccc3)cc2)NC(=O)[C@H](C(C)C)NC(=O)[C@H](Cc2c[nH]c3ccccc23)NC(=O)[C@H](CC(=O)O)NC(=O)[C@H](Cc2ccc(OCC(=O)O)cc2)NC(=O)[C@H](CN)NC(=O)CSC[C@@H](C(=O)NCCOCCOCC(=O)N[C@@H](CCCCN)C(=O)NCCCCCCCCCCC(=O)O)NC(=O)[C@H]([C@H](C)O)NC(=O)[C@H](C(C)C)NC(=O)[C@H](CC2CCCCC2)NC(=O)[C@H](CC(N)=O)NC1=O` [Compound 3164] ({CH2CO}-[Dap]Y(Carboxymethyl)DWV[Bip]V[Orn][dL]N[Cha]V[aThr]C[AEEA]K[Aun]-OH; thioether N-14), the concentration for half-maximal inhibition (IC50) was determined as 0.0299 µM.
With `CC(C)C[C@H]1NC(=O)[C@H](CCCN)NC(=O)[C@H](C(C)C)NC(=O)[C@H](Cc2ccc(-c3ccccc3)cc2)NC(=O)[C@H](C(C)C)NC(=O)[C@H](Cc2c[nH]c3ccccc23)NC(=O)[C@H](CC(=O)O)NC(=O)[C@H](Cc2ccc(OCC(=O)O)cc2)NC(=O)[C@H](CCCCNC(=N)N)NC(=O)CSC[C@@H](C(=O)NCCOCCOCC(=O)N[C@@H](CCCCN)C(=O)NCCCCCCCCCCCC(=O)O)NC(=O)[C@H](C(C)O)NC(=O)[C@H](C(C)C)NC(=O)[C@H](CC2CCCCC2)NC(=O)[C@H](CCN)NC1=O` (stereo partly drawn) [Compound 3165] ({CH2CO}-[hArg]Y(Carboxymethyl)DWV[Bip]V[Orn][dL][Dab][Cha]V[Thr(3ξ)]C[AEEA]K[12Ado]-OH; thioether N-14), the IC50 amounted to 0.0306 µM.
With `CC(C)C[C@H]1NC(=O)[C@H](CCCCN)NC(=O)[C@H](C(C)C)NC(=O)[C@H](Cc2ccc(-c3ccccc3)cc2)NC(=O)[C@H](C(C)C)NC(=O)[C@H](Cc2c[nH]c3ccccc23)NC(=O)[C@H](CC(=O)O)NC(=O)[C@H](Cc2ccc(OCC(=O)O)cc2)NC(=O)[C@H](Cc2ccsc2)NC(=O)CSC[C@@H](C(=O)NCCOCCOCC(=O)N[C@@H](CCCN)C(=O)NCCCCCCCCCCC(=O)O)NC(=O)[C@H](C(C)O)NC(=O)[C@H](C(C)C)NC(=O)[C@H](CC2CCCCC2)NC(=O)[C@H](CCN)NC1=O` (stereo partly drawn) [Compound 3167] ({CH2CO}-[3Thi]Y(Carboxymethyl)DWV[Bip]VK[dL][Dab][Cha]V[Thr(3ξ)]C[AEEA][Orn][Aun]-OH; thioether N-14) the figure was 0.059 µM.
The figure for `CC(C)C[C@H]1NC(=O)[C@H](CCCN)NC(=O)[C@H](C(C)C)NC(=O)[C@H](Cc2ccc(-c3ccccc3)cc2)NC(=O)[C@H](C(C)C)NC(=O)[C@H](Cc2c[nH]c3ccccc23)NC(=O)[C@H](CC(=O)O)NC(=O)[C@H](Cc2ccc(OCC(=O)O)cc2)NC(=O)[C@H](Cc2ccsc2)NC(=O)CSC[C@@H](C(=O)N[C@@H](CCCN)C(=O)NCCOCCOCC(=O)NCCCCCCCCCCCC(=O)O)NC(=O)[C@H](C(C)O)NC(=O)[C@H](C(C)C)NC(=O)[C@H](CC2CCCCC2)NC(=O)[C@H](CCN)NC1=O` (stereo partly drawn) [Compound 3168] ({CH2CO}-[3Thi]Y(Carboxymethyl)DWV[Bip]V[Orn][dL][Dab][Cha]V[Thr(3ξ)]C[Orn][AEEA][12Ado]-OH; thioether N-14) is 0.0736 µM; for `CC(C)C[C@H]1NC(=O)[C@H](CCCN)NC(=O)[C@H](C(C)C)NC(=O)[C@H](Cc2ccc(-c3ccccc3)cc2)NC(=O)[C@H](C(C)C)NC(=O)[C@H](Cc2c[nH]c3ccccc23)NC(=O)[C@H](CC(=O)O)NC(=O)[C@H](CCCCNC(N)=O)NC(=O)[C@H](Cc2ccc(OCC(=O)O)cc2)NC(=O)CSC[C@@H](C(=O)NCC(=O)NCCOCCOCC(=O)N[C@@H](CCCN)C(=O)NCCCCCCCCCCCC(=O)O)NC(=O)[C@H](CN)NC(=O)[C@H](C(C)C)NC(=O)[C@H](CC2CCCCC2)NC(=O)[C@H](CCN)NC1=O` [Compound 3169] ({CH2CO}-Y(Carboxymethyl)[hCit]DWV[Bip]V[Orn][dL][Dab][Cha]V[Dap]CG[AEEA][Orn][12Ado]-OH; thioether N-14) it is 0.0208 µM; for `CC(C)C[C@H]1NC(=O)[C@H](CCCN)NC(=O)[C@H](C(C)C)NC(=O)[C@H](Cc2ccc(-c3ccccc3)cc2)NC(=O)[C@H](C(C)C)NC(=O)[C@H](Cc2c[nH]c3ccccc23)NC(=O)[C@H](CC(=O)O)NC(=O)[C@H](Cc2ccncc2)NC(=O)[C@H](Cc2ccc(OCC(=O)O)cc2)NC(=O)CSC[C@@H](C(=O)NCC(=O)NCCOCCOCC(=O)N[C@@H](CCCN)C(=O)NCCCCCCCCCCCC(=O)O)NC(=O)[C@H](CN)NC(=O)[C@H](C(C)C)NC(=O)[C@H](CC2CCCCC2)NC(=O)[C@H](CCN)NC1=O` [Compound 3170] ({CH2CO}-Y(Carboxymethyl)[4Pal]DWV[Bip]V[Orn][dL][Dab][Cha]V[Dap]CG[AEEA][Orn][12Ado]-OH; thioether N-14) it is 0.0175 µM.
With `CC(C)C[C@H]1NC(=O)[C@H](CCCN)NC(=O)[C@H](C(C)C)NC(=O)[C@H](Cc2ccc(-c3ccccc3)cc2)NC(=O)[C@H](C(C)C)NC(=O)[C@H](Cc2c[nH]c3ccccc23)NC(=O)[C@H](CC(=O)O)NC(=O)[C@H](Cc2ccc(C(=O)O)cc2)NC(=O)[C@H](Cc2ccc(OCC(=O)O)cc2)NC(=O)CSC[C@@H](C(=O)NCC(=O)NCCOCCOCC(=O)N[C@@H](CCCN)C(=O)NCCCCCCCCCCCC(=O)O)NC(=O)[C@H](CN)NC(=O)[C@H](C(C)C)NC(=O)[C@H](CC2CCCCC2)NC(=O)[C@H](CCN)NC1=O` [Compound 3171] ({CH2CO}-Y(Carboxymethyl)[Phe(4-COOH)]DWV[Bip]V[Orn][dL][Dab][Cha]V[Dap]CG[AEEA][Orn][12Ado]-OH; thioether N-14) the figure was 0.0061 µM; with `CC(C)C[C@H]1NC(=O)[C@H](CCCN)NC(=O)[C@H](C(C)C)NC(=O)[C@H](Cc2ccc(-c3ccccc3)cc2)NC(=O)[C@H](C(C)C)NC(=O)[C@H](Cc2c[nH]c3ccccc23)NC(=O)[C@H](CC(=O)O)NC(=O)[C@H](Cc2ccc(OCC(=O)O)cc2)NC(=O)[C@H](CCCNC(=N)N)NC(=O)CSC[C@@H](C(=O)NCC(=O)NCCOCCOCC(=O)N[C@@H](CCCN)C(=O)NCCCCCCCCCCCC(=O)O)NC(=O)[C@H](CN)NC(=O)[C@H](C(C)C)NC(=O)[C@H](CC2CCCCC2)NC(=O)[C@H](CCN)NC1=O` [Compound 3172] ({CH2CO}-RY(Carboxymethyl)DWV[Bip]V[Orn][dL][Dab][Cha]V[Dap]CG[AEEA][Orn][12Ado]-OH; thioether N-14), 0.0107 µM; with `CC(C)C[C@H]1NC(=O)[C@H](CCCN)NC(=O)[C@H](C(C)C)NC(=O)[C@H](Cc2ccc(-c3ccccc3)cc2)NC(=O)[C@H](C(C)C)NC(=O)[C@H](Cc2c[nH]c3ccccc23)NC(=O)[C@H](CC(=O)O)NC(=O)[C@H](Cc2ccc(OCC(=O)O)cc2)NC(=O)[C@H](CCCCNC(=N)N)NC(=O)CSC[C@@H](C(=O)NCC(=O)NCCOCCOCC(=O)N[C@@H](CCCN)C(=O)NCCCCCCCCCCCC(=O)O)NC(=O)[C@H](CN)NC(=O)[C@H](C(C)C)NC(=O)[C@H](CC2CCCCC2)NC(=O)[C@H](CCN)NC1=O` [Compound 3173] ({CH2CO}-[hArg]Y(Carboxymethyl)DWV[Bip]V[Orn][dL][Dab][Cha]V[Dap]CG[AEEA][Orn][12Ado]-OH; thioether N-14), 0.0212 µM.
In the case of `CC(C)C[C@H]1NC(=O)[C@H](CCCN)NC(=O)[C@H](C(C)C)NC(=O)[C@H](Cc2ccc(-c3ccccc3)cc2)NC(=O)[C@H](C(C)C)NC(=O)[C@H](Cc2c[nH]c3ccccc23)NC(=O)[C@H](CC(=O)O)NC(=O)[C@H](Cc2ccc(OCC(=O)O)cc2)NC(=O)[C@H](CCCCNC(=N)N)NC(=O)CSC[C@@H](C(=O)NCC(=O)N[C@@H](CCCN)C(=O)NCCCCCCCCCCCC(=O)O)NC(=O)[C@H](CN)NC(=O)[C@H](C(C)C)NC(=O)[C@H](CC2CCCCC2)NC(=O)[C@H](CCN)NC1=O` [Compound 3175] ({CH2CO}-[hArg]Y(Carboxymethyl)DWV[Bip]V[Orn][dL][Dab][Cha]V[Dap]CG[Orn][12Ado]-OH; thioether N-14), the IC50 was 0.0177 µM.
With `CC(C)C[C@H]1NC(=O)[C@H](CCCN)NC(=O)[C@H](C(C)C)NC(=O)[C@H](Cc2ccc(-c3ccccc3)cc2)NC(=O)[C@H](C(C)C)NC(=O)[C@H](Cc2c[nH]c3ccccc23)NC(=O)[C@H](CC(=O)O)NC(=O)[C@H](Cc2ccc(OCC(=O)O)cc2)NC(=O)[C@H](CCCCNC(=N)N)NC(=O)CSC[C@@H](C(=O)NCC(=O)N[C@@H](CCCN)C(=O)NCCCCCCCCCCCC(=O)O)NC(=O)[C@H](CN)NC(=O)[C@H](C(C)C)NC(=O)[C@H](CC2CCCCC2)NC(=O)[C@H](CC(N)=O)NC1=O` [Compound 3176] ({CH2CO}-[hArg]Y(Carboxymethyl)DWV[Bip]V[Orn][dL]N[Cha]V[Dap]CG[Orn][12Ado]-OH; thioether N-14) the figure was 0.0334 µM.

The values above are taken from patent US20260022142A1, “MACROCYCLIC IMMUNOMODULATORS” (Bristol-Myers Squibb Company, priority 2022, published 2026).
